# Like-named read-outs stand apart in the source and are kept apart here.
# Columns and labels:
# AR2 cells (HepG2-AR2) [1] = system: AR2 cells (HepG2-AR2)
# Protocol: (§1) For antagonist mode and cytotoxicity data, well-level normalized response (resp) was calculated as: resp=100 * RLU−bval/pval−bval where pval is the median RLU value of the MEC positive control wells (minimum four wells).
# AR2 cells (HepG2-AR2) [2] = assay: Alamar Blue (resazurin) post hoc cell viability / cytotoxicity assay in AR2 cells; settings: spid Viability, sheet antagonist_fits; for hill_tp (Hill model top): 0 where win_model is Constant
# Protocol: as §1
# AR = system: AR; design: method as in Kleinstreuer et al., 2017; settings: 2017, cited from earlier work; for Agonist reference: AR agonist reference class ref Kleinstreuer et al.; for Antagonist reference: AR antagonist reference class ref Kleinstreuer et al.
# human AR [3] = target: T1, human AR (Homo sapiens, UniProt P10275); assay: AR2 assay, agonist mode: ligand-dependent AR homodimerization (NanoBiT luciferase complementation) in stable HepG2-AR2 cells; type: cell-based; settings: sheet agonist_fits; for hill_tp: Hill model top (efficacy), 0 given where win_model is Constant; for max_med: maximum median response; for win_model: winning concentration-response model (Constant, Hill, Gain-Loss);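 on hill tp: Log2 fold change of luminescence over DMSO vehicle wells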;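 on max med: Log2 fold change of luminescence over DMSO vehicle wells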
# T1 sequence (P10275 1-920) 1: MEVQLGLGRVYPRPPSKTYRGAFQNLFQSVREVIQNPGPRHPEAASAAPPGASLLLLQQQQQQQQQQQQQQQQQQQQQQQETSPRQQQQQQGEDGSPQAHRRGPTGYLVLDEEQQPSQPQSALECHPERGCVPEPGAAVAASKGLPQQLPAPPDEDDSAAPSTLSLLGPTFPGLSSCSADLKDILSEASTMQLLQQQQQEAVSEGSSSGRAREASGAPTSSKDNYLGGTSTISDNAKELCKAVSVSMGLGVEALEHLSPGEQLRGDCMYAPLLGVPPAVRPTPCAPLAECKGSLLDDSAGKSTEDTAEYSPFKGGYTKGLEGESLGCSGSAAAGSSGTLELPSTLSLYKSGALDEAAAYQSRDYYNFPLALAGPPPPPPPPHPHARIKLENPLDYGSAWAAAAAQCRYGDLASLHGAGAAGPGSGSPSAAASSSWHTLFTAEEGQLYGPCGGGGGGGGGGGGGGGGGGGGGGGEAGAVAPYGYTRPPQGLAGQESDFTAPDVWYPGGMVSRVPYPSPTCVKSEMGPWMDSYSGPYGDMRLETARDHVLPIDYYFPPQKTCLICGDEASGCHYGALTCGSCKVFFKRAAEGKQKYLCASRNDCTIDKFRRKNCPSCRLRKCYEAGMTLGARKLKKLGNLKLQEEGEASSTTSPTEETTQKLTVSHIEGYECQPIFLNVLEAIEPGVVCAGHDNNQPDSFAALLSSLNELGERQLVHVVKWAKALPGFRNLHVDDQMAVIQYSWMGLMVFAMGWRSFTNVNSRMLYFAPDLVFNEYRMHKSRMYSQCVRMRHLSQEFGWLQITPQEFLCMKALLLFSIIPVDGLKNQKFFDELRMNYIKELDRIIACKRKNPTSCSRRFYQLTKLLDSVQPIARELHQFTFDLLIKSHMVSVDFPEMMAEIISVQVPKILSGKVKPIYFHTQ
# T1 sequence (P10275 1-920) 2: T1 sequence (P10275 1-920) 1
# human AR [4] = target: T1, human AR; assay: AR2 assay, antagonist mode: disruption of R1881 (10 nM)-induced AR homodimerization in HepG2-AR2 cells; type: cell-based
# human AR [5] = target: T1, human AR; assay: cell-based; design: species or system AR2 cells (HepG2-AR2); NanoLuc complementation AR homodimerization, antagonist mode, loss of agonist-induced luminescence, AC50 by Hill fit; settings: hill_ga, antagonist mode, 10 nM agonist stimulus, 18 h, no CYP expressed
# [6] = spid AR_antagonist, sheet antagonist_fits
# [7] = spid AR_antagonist, sheet antagonist_fits, Hill fit parameter
structure (smiles),measurement,setting,value
CCOC(=O)c1ccc(O)cc1 [Ethylparaben],hill_ga (Hill model log AC50),AR2 cells (HepG2-AR2) [1],0
same,max_med (maximum median response),AR2 cells (HepG2-AR2) [2],6.202
same,hill_tp (Hill model top),AR2 cells (HepG2-AR2) [2],0
C=C1C[C@@H]2[C@H](CC[C@]3(C)C(=O)CC[C@@H]23)[C@@]2(C)C=CC(=O)C=C12 [Exemestane],hill_tp (Hill model top),AR2 cells (HepG2-AR2) [1],0
same,max_med (maximum median response),"AR2 cells (HepG2-AR2) [1]; spid Viability, sheet antagonist_fits",7.414
OC(c1ccc(Cl)cc1)(c1cncnc1)c1ccccc1Cl (stereo not drawn) [Fenarimol],hill_ga (Hill model log AC50),AR2 cells (HepG2-AR2) [1],0
same,Agonist reference,AR,Inactive
same,Antagonist reference,AR,Weak
same,Antagonist reference,AR; Supplementary Table S1,Weak
same,max_med (maximum median response),AR2 cells (HepG2-AR2) [2],16.9049
same,hill_tp (Hill model top),AR2 cells (HepG2-AR2) [2],0
O=C1c2ccccc2C(=O)N1SC(Cl)(Cl)Cl [Folpet],hill_ga (Hill model log AC50),AR2 cells (HepG2-AR2) [1],1.483
same,max_med (maximum median response),AR2 cells (HepG2-AR2) [2],26.2456
same,hill_tp (Hill model top),AR2 cells (HepG2-AR2) [2],26.8665
O=c1c(-c2ccc(O)cc2)coc2cc(O)cc(O)c12 [Genistein],hill_tp,human AR [3],0
same,max_med,human AR [3],0.108
same,win_model,human AR [3],Constant
same,hill_tp (Hill model top),human AR [4],100.659
same,max_med (maximum median response),human AR [4],101.398
same,win_model (winning concentration-response model),human AR [4]; [6],Hill
same,hill_gw (Hill model slope),"human AR [4]; spid AR_antagonist, sheet antagonist_fits, 0 where win_model is Constant",2.066
same,AC50,human AR [5]; spid=Bgal,9.34 µM
same,AC50,human AR [5]; spid=No_RNA,9.32 µM
same,max_med (maximum median response),AR2 cells (HepG2-AR2) [2],23.3224
same,hill_tp (Hill model top),AR2 cells (HepG2-AR2) [2],24.3043
CC(C)NC(=O)N1CC(=O)N(c2cc(Cl)cc(Cl)c2)C1=O [Iprodione],hill_ga (Hill model log AC50),AR2 cells (HepG2-AR2) [1],0
same,Agonist reference,AR; Supplementary Table S1,Inactive
same,max_med (maximum median response),AR2 cells (HepG2-AR2) [2],9.628
same,hill_tp (Hill model top),AR2 cells (HepG2-AR2) [2],0
CNc1cnn(-c2cccc(C(F)(F)F)c2)c(=O)c1Cl [Norflurazon],hill_ga (Hill model log AC50),AR2 cells (HepG2-AR2) [1],0
same,max_med (maximum median response),AR2 cells (HepG2-AR2) [2],4.6212
same,hill_tp (Hill model top),AR2 cells (HepG2-AR2) [2],0
C#CCOS(=O)OC1CCCCC1Oc1ccc(C(C)(C)C)cc1 (stereo not drawn) [Propargite],hill_ga (Hill model log AC50),AR2 cells (HepG2-AR2) [1],0.5083
same,max_med (maximum median response),AR2 cells (HepG2-AR2) [2],5.892
same,hill_tp (Hill model top),AR2 cells (HepG2-AR2) [2],5.298
CCNc1nc(Cl)nc(NCC)n1 [Simazine],hill_ga (Hill model log AC50),AR2 cells (HepG2-AR2) [1],-0.7451
same,Antagonist reference,AR,Inactive
same,max_med (maximum median response),AR2 cells (HepG2-AR2) [2],12.6117
same,hill_tp (Hill model top),AR2 cells (HepG2-AR2) [2],7.295
CC(C)(C)C(=O)C(Oc1ccc(Cl)cc1)n1cncn1 (stereo not drawn) [Triadimefon],hill_ga (Hill model log AC50),AR2 cells (HepG2-AR2) [1],-3.878
same,max_med (maximum median response),AR2 cells (HepG2-AR2) [2],19.918
same,hill_tp (Hill model top),AR2 cells (HepG2-AR2) [2],58.3985
C=CC1(C)OC(=O)N(c2cc(Cl)cc(Cl)c2)C1=O (stereo not drawn) [Vinclozolin],hill_ga (Hill model log AC50),AR2 cells (HepG2-AR2) [1],-3.255
same,Antagonist reference,AR,Weak
same,Antagonist reference,AR; Supplementary Table S1,Weak
same,max_med (maximum median response),AR2 cells (HepG2-AR2) [2],15.9864
same,hill_tp (Hill model top),AR2 cells (HepG2-AR2) [2],12.9726
COP(=O)(OC)O/C(=C\Cl)c1cc(Cl)c(Cl)cc1Cl [Z-Tetrachlorvinphos],hill_tp,human AR [3],0
same,max_med,human AR [3],0.08626
same,win_model,human AR [3],Constant
same,max_med (maximum median response),human AR [4]; [6],94.4561
same,win_model (winning curve-fit model),"human AR [4]; spid AR_antagonist, sheet antagonist_fits, Constant = no concentration response",Hill
same,hill_gw (Hill model slope/Hill coefficient),human AR [4]; [7],1.437
same,hill_tp (Hill model top of curve),human AR [4]; [7],113.966
same,AC50,human AR [5]; spid=Bgal,28.8 µM
same,AC50,human AR [5]; spid=No_RNA,28.9 µM
same,max_med (maximum median response),AR2 cells (HepG2-AR2) [2],16.5553
same,hill_tp (Hill model top of curve),AR2 cells (HepG2-AR2) [2]; Hill fit parameter,16.4592
"Clc1ccc(C(c2ccccc2Cl)C(Cl)(Cl)Cl)cc1 (stereo not drawn) [o,p'-DDT]",hill_ga (Hill model log AC50),AR2 cells (HepG2-AR2) [1],1.826
same,hill_tp (Hill model top of curve),AR2 cells (HepG2-AR2) [1]; human,110.666
same,max_med (maximum median response),AR2 cells (HepG2-AR2) [1]; human,83.8839
same,Agonist reference,AR,Inactive
same,Antagonist reference,AR,Weak
same,Antagonist reference,AR; Supplementary Table S1,Weak
"Clc1ccc(C(c2ccc(Cl)cc2)C(Cl)Cl)cc1 [p,p'-DDD]",hill_ga (Hill model log AC50),AR2 cells (HepG2-AR2) [1],1.74
same,hill_tp (Hill model top of curve),"AR2 cells (HepG2-AR2) [1]; human, 18 h",93.5622
same,max_med (maximum median response),"AR2 cells (HepG2-AR2) [1]; human, 18 h",93.2611
"ClC(Cl)=C(c1ccc(Cl)cc1)c1ccc(Cl)cc1 [p,p'-DDE]",hill_ga (Hill model log AC50),AR2 cells (HepG2-AR2) [1],1.812
same,Antagonist reference,AR; Supplementary Table S1,Weak

# Source: PMC10112521, “High-throughput AR dimerization assay identifies androgen disrupting chemicals and metabolites” (Frontiers in Toxicology, 2023)
